Laboratory results as given in ChEMBL document CHEMBL6103537 (J Med Chem, 2025).
The source made the active and inactive calls. The calls are words filed in the database; no cut-off is given here.

Tests used:
[1] = biological target: T1, Protein cereblon/Signal transducer and activator of transcription 5A/Signal transducer and activator of transcription 5B (Homo sapiens) (UniProt P42229+P51692+Q96SW2); test: PROTAC activity at STAT5/CRBN in human MV4-11 cells assessed as reduction in STAT5 level at upto 10 uM incubated for 12 hrs by Western blot analysis; type: cell-based
T1 sequence (P42229 whole entry, looked up): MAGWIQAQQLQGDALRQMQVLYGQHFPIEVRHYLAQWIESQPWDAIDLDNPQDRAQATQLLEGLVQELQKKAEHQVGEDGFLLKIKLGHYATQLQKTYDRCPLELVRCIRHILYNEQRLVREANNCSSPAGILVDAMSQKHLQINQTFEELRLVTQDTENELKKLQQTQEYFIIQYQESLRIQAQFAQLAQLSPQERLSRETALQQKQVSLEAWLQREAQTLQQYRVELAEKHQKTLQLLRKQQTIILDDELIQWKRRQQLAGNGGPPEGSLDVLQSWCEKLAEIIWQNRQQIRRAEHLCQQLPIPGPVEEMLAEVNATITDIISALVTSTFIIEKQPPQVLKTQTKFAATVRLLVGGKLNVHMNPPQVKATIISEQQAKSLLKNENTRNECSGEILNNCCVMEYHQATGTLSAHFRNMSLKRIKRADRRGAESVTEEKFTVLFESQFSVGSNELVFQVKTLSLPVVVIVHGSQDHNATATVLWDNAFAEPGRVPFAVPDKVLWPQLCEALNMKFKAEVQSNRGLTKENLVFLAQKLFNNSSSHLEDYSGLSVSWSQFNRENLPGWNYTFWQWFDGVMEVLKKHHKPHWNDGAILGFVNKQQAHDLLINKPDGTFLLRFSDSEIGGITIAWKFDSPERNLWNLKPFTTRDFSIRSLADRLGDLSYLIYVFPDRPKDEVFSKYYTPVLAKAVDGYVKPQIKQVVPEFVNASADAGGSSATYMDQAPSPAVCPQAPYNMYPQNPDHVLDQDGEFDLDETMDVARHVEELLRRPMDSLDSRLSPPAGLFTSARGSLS
T1 sequence (P51692 whole entry, looked up): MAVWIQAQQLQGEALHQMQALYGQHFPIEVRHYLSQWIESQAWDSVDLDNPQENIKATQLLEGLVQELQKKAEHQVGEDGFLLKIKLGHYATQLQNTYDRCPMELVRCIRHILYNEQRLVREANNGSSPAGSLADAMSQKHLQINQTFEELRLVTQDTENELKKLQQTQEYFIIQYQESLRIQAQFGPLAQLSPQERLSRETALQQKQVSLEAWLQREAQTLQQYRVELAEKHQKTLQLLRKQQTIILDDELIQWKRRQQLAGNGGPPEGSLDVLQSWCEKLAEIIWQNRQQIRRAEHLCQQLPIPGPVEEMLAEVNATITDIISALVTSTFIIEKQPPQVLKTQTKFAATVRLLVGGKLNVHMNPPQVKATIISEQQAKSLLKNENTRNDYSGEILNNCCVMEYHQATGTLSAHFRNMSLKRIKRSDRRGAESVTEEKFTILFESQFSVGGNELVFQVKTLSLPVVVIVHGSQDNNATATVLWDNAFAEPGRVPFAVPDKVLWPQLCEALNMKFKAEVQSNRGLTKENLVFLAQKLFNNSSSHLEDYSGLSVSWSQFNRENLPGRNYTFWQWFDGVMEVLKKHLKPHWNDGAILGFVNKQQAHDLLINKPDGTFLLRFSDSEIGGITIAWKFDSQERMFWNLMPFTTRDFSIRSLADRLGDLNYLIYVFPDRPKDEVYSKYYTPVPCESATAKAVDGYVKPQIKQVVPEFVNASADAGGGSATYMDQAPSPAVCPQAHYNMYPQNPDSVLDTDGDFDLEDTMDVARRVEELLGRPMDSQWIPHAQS
T1 sequence (Q96SW2 whole entry, looked up): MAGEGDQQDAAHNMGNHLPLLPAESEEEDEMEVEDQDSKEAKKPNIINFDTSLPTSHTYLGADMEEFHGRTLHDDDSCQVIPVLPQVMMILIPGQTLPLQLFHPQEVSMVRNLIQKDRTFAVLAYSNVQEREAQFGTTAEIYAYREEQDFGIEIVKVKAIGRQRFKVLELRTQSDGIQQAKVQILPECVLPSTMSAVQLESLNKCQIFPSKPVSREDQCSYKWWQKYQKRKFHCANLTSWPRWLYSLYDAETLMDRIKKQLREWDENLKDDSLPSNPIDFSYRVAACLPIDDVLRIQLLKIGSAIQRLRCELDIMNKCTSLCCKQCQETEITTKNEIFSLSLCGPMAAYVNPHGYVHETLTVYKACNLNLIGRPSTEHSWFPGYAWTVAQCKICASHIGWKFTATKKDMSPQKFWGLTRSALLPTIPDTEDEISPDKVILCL

[2] = biological target: T2, Protein cereblon/Signal transducer and activator of transcription 2 (Homo sapiens) (UniProt Q96SW2+P52630); test: PROTAC activity at STAT2/CRBN in human MV4-11 cells assessed as reduction in STAT2 level at 2 uM incubated for 12 hrs by Western blot analysis relative to control; type: cell-based
T2 sequence (P52630 whole entry, looked up): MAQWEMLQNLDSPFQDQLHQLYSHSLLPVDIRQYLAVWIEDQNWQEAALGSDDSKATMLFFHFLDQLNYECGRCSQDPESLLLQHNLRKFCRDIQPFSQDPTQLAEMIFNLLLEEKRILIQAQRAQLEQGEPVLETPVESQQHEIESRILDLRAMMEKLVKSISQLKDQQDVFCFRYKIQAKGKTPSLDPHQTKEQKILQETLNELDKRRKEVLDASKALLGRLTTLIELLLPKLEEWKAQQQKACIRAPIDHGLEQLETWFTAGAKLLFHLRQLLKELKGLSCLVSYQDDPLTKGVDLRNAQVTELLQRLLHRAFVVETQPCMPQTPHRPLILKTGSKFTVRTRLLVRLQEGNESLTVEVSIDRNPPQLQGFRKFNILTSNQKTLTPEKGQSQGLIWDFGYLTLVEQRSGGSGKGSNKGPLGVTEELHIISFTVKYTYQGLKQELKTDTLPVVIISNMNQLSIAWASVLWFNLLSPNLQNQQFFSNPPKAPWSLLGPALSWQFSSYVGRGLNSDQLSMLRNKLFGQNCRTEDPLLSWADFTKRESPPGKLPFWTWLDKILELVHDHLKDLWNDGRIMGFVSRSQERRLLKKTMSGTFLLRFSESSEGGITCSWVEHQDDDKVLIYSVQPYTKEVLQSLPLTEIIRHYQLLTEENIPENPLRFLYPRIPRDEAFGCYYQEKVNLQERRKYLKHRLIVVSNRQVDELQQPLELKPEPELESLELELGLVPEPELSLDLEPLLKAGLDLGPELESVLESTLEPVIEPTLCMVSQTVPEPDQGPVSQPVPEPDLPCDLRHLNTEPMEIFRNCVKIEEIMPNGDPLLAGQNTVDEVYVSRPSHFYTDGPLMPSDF
T2 sequence (Q96SW2 whole entry, looked up): as the sequence (Q96SW2 whole entry, looked up) above

[3] = biological target: T3, Protein cereblon/Signal transducer and activator of transcription 4 (Homo sapiens) (UniProt Q96SW2+Q14765); test: PROTAC activity at STAT4/CRBN in human MV4-11 cells assessed as reduction in STAT4 level at 10 uM incubated for 12 hrs by Western blot analysis; type: cell-based
T3 sequence (Q14765 whole entry, looked up): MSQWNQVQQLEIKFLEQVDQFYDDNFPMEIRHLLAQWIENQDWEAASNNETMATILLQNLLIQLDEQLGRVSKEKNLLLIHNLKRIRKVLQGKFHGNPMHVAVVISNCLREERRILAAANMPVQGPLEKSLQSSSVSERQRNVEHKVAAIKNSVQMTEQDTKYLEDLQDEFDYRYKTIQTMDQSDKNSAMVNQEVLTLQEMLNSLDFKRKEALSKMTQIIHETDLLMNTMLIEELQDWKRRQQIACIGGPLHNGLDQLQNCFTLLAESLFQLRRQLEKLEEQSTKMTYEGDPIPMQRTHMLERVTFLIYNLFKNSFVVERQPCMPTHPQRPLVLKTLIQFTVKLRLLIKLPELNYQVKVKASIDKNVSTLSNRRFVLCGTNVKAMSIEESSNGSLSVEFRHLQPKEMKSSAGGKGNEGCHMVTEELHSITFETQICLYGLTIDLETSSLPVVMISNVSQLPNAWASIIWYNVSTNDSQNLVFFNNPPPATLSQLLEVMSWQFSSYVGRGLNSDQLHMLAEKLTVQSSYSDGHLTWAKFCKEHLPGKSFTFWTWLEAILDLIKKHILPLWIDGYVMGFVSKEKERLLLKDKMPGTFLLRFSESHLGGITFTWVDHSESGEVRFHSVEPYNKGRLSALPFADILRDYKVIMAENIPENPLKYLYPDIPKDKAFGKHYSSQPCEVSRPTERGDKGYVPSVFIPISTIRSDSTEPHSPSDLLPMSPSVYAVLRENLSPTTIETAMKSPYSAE
T3 sequence (Q96SW2 whole entry, looked up): as the sequence (Q96SW2 whole entry, looked up) above

[4] = biological target: Protein cereblon/Signal transducer and activator of transcription 6 (Homo sapiens, UniProt P42226+Q96SW2); test: PROTAC activity at STAT6/CRBN in human PBMC cells assessed as reduction in STAT6 level incubated for 18 hrs by Western blot analysis; type: cell-based
[5] = biological target: T1, Protein cereblon/Signal transducer and activator of transcription 5A/Signal transducer and activator of transcription 5B (Homo sapiens); test: PROTAC activity at STAT5/CRBN in human PBMC cells assessed as reduction in STAT5 level at 10 uM incubated for 18 hrs by Western blot analysis relative to control; type: cell-based
[6] = biological target: T2, Protein cereblon/Signal transducer and activator of transcription 2 (Homo sapiens); test: PROTAC activity at STAT2/CRBN in human PBMC cells assessed as reduction in STAT2 level at 10 uM incubated for 18 hrs by Western blot analysis relative to control; type: cell-based
[7] = biological target: Protein cereblon/Signal transducer and activator of transcription 1-alpha/beta (Homo sapiens) (UniProt P42224+Q96SW2); test: PROTAC activity at STAT1/CRBN in human L-1236 cells assessed as reduction in STAT1 level at 10 uM incubated for 24 hrs by Western blot analysis; type: cell-based
[8] = biological target: T2, Protein cereblon/Signal transducer and activator of transcription 2 (Homo sapiens); test: PROTAC activity at STAT2/CRBN in human L-1236 cells assessed as reduction in STAT2 level at 10 uM incubated for 24 hrs by Western blot analysis; type: cell-based
[9] = biological target: Protein cereblon/Signal transducer and activator of transcription 3 (Homo sapiens) (UniProt P40763+Q96SW2); test: PROTAC activity at STAT3/CRBN in human L-1236 cells assessed as reduction in STAT3 level at 10 uM incubated for 24 hrs by Western blot analysis; type: cell-based
[10] = biological target: T3, Protein cereblon/Signal transducer and activator of transcription 4 (Homo sapiens); test: PROTAC activity at STAT4/CRBN in human L-1236 cells assessed as reduction in STAT4 level at 10 uM incubated for 24 hrs by Western blot analysis; type: cell-based
[11] = tested on: PBMC; test: Downregulation of STAT1 level in human PBMC cells at 5 uM incubated for 18 hrs by Western blot analysis relative to control; type: functional, cell-based
[12] = tested on: PBMC; test: Downregulation of STAT5 level in human PBMC cells at 5 uM incubated for 18 hrs by Western blot analysis relative to control; type: functional, cell-based
[13] = Metabolic stability in human liver microsome assessed as parent compound remaining measured at 45 mins in presence of NADPH by LC-MS/MS analysis; type: ADME; settings: liver microsomes, read-out: Stability
[14] = Metabolic stability in dog liver microsome assessed as parent compound remaining measured at 30 mins in presence of NADPH by LC-MS/MS analysis; type: ADME, Canis lupus familiaris; settings: liver microsomes, read-out: Stability
[15] = Metabolic stability in monkey liver microsome assessed as parent compound remaining measured at 5 mins in presence of NADPH by LC-MS/MS analysis; type: ADME, Macaca mulatta; settings: rhesus monkey, liver microsomes, read-out: Stability
[16] = Metabolic stability in rat liver microsome assessed as parent compound remaining measured at 5 mins in presence of NADPH by LC-MS/MS analysis; type: ADME; settings: liver microsomes, read-out: Stability
[17] = Metabolic stability in mouse liver microsome assessed as parent compound remaining measured at 15 mins in presence of NADPH by LC-MS/MS analysis; type: ADME; settings: liver microsomes, read-out: Stability
[18] = Metabolic stability in human liver microsome assessed as half life measured upto 60 mins in presence of NADPH by LC-MS/MS analysis; type: ADME; settings: liver microsomes
[19] = Metabolic stability in mouse liver microsome assessed as half life measured upto 60 mins in presence of NADPH by LC-MS/MS analysis; type: ADME; settings: liver microsomes
[20] = Stability in human plasma assessed as parent compound remaining measured at 60 mins by LC-MS/MS analysis; type: ADME, cell-free; settings: read-out: Stability
[21] = Stability in human plasma assessed as parent compound remaining measured at 120 mins by LC-MS/MS analysis; type: ADME, cell-free; settings: read-out: Stability
[22] = Stability in monkey plasma assessed as parent compound remaining measured at 5 mins by LC-MS/MS analysis; type: ADME, cell-free, Macaca mulatta; settings: rhesus monkey, read-out: Stability
[23] = Stability in monkey plasma assessed as parent compound remaining measured at 30 mins by LC-MS/MS analysis; type: ADME, cell-free, Macaca mulatta; settings: rhesus monkey, read-out: Stability
[24] = Stability in mouse plasma assessed as parent compound remaining measured at 5 mins by LC-MS/MS analysis; type: ADME, cell-free; settings: read-out: Stability
[25] = Stability in dog plasma assessed as half life measured upto 60 mins by LC-MS/MS analysis; type: ADME, cell-free, Canis lupus familiaris
[26] = Stability in mouse plasma assessed as half life measured upto 60 mins by LC-MS/MS analysis; type: ADME, cell-free
[27] = biological target: T4, Protein cereblon/Signal transducer and transcription activator 6 (Mus musculus) (UniProt P52633+Q8C7D2); test: In vivo PROTAC activity at STAT6/CRBN in BALB/c mouse assessed as reduction in STAT6 level in lung at 200 mg/kg, ip measured at 2 hrs by Western blot analysis; type: functional, organism-based; design: scale not given: the % may be the effect or the level left
T4 sequence (P52633 whole entry, looked up): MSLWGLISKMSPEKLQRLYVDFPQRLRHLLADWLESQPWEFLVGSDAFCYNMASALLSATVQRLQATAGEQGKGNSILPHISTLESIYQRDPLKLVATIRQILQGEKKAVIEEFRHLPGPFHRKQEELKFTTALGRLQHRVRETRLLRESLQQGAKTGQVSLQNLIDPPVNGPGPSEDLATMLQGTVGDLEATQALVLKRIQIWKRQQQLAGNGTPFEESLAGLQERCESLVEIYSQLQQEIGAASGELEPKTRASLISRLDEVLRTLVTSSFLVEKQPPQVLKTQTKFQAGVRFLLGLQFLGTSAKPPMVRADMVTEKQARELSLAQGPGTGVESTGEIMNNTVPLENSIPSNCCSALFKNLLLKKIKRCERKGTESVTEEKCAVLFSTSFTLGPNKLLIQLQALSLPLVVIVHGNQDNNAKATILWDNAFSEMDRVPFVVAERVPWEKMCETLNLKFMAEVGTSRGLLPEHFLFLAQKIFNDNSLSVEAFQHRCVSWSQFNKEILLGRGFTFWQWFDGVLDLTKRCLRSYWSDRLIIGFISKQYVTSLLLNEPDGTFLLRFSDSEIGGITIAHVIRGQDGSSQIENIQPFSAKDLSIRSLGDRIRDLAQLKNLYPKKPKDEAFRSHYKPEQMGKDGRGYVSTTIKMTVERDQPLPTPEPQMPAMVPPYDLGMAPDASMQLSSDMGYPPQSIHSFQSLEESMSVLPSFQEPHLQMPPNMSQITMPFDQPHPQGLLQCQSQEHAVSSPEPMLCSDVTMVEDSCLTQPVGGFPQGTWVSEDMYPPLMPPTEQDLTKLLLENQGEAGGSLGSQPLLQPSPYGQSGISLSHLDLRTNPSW
T4 sequence (Q8C7D2 whole entry, looked up): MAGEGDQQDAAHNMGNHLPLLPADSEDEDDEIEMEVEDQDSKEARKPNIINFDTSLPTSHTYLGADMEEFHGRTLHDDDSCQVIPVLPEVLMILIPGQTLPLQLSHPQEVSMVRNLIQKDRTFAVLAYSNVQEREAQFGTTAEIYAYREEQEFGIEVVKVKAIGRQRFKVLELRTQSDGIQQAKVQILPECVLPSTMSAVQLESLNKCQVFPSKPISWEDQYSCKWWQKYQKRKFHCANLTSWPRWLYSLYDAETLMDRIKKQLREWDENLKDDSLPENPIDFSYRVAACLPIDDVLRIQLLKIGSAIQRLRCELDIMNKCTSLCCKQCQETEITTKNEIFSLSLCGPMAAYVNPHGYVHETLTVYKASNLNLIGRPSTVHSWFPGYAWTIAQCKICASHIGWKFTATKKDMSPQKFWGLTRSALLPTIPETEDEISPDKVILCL

[28] = biological target: T4, Protein cereblon/Signal transducer and transcription activator 6 (Mus musculus); test: In vivo PROTAC activity at STAT6/CRBN in BALB/c mouse assessed as reduction in STAT6 level in lung at 200 mg/kg, ip measured at 6 hrs by Western blot analysis; type: functional, organism-based; design: scale not given: the % may be the effect or the level left
[29] = biological target: T4, Protein cereblon/Signal transducer and transcription activator 6 (Mus musculus); test: In vivo PROTAC activity at STAT6/CRBN in BALB/c mouse assessed as reduction in STAT6 level in lung at 200 mg/kg, ip measured at 24 hrs by Western blot analysis; type: functional, organism-based; design: scale not given: the % may be the effect or the level left

Activity [1]: No effect | Emax [2]: < 40% | Activity [3]: inactive | DC50 [4]: 80 nM | Activity [5]: No effect | Activity [6]: No effect | Activity [7]: No effect | Activity [8]: No effect | Activity [9]: No effect | Activity [10]: No effect | remaining at 0.75 h [13]: 91% | remaining at 0.5 h [14]: 95% | remaining at 5 min [15]: 95% | remaining at 5 min [16]: 99% | remaining at 0.25 h [17]: 98% | half-life [18]: > 2 h | half-life [19]: > 2 h | remaining at 1 h [20]: 94% | remaining at 2 h [21]: 74% | remaining at 5 min [22]: 82% | remaining at 0.5 h [23]: 91% | remaining at 5 min [24]: 102% | half-life [25]: > 2 h | half-life [26]: > 2 h | Activity [27]: > 70% | Activity [28]: > 90% | Activity [29]: > 70%
SMILES: CC(C)(C)[C@H](NC(=O)c1cc2cc(C(F)(F)P(=O)(O)O)ccc2s1)C(=O)N1C[C@@H](OCCCCCC#Cc2cccc3c2CN(C2CCC(=O)NC2=O)C3=O)C[C@H]1C(=O)N1CCO[C@H](c2ccccc2)C1 (some centres undefined)
Activity [11]: inactive | Activity [12]: inactive
